Test results reported in patent publication EP4603105A1, “PHARMACEUTICAL COMPOSITION CONTAINING CYCLIC COMPOUND HAVING SELECTIVE KRAS INHIBITORY EFFECT AGAINST HRAS AND NRAS” (CHUGAI SEIYAKU KABUSHIKI KAISHA, priority 2022, dated 2024).
Where two headings read alike, the source gives them in different places.

What was measured:
HRAS wild-type protein = HRAS wild-type protein (Homo sapiens, UniProt P01112); assay: Binding to HRAS by surface plasmon resonance (SPR), KD and KD ratio to KRAS
Procedure, shortened: (§1)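 Compound binding is evaluated by SPR single-cycle kinetics, with concentrations added intermittently from low to high for 75 s each. Target surfaces carry GDP-loaded biotinylated Avi-RAS at about 100–300 RU, regenerated after each cycle; temperature 30°C. A 1:1 binding model gives KD.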

[1] = system: human lung cancer strain NCI-H441; assay: NCI-H441 cell proliferation inhibitory activity (CellTiter-Glo, 4 days); type: cell-based; settings: read-out: NCl-H441 IC50
Procedure, shortened: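 Proliferation was scored by […] measured after the reagent was added to cultures kept at 37°C in 5% carbon dioxide.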

[2] = biological target: GDP-bound KRAS wild-type protein (Homo sapiens, UniProt P01116); assay: Binding to KRAS by surface plasmon resonance (SPR), dissociation constant KD
Procedure, shortened: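 Each cycle, GDP-bound biotin-Avi RAS was captured (~100–300 RU), compound concentrations were injected low to high for 75 s each at 100 µL/min, then the chip was regenerated. Buffer: HBS pH 7.4, 10 mM MgCl2, 10 µM GDP, 1 mM DTT, 4% DMSO; 30°C. KD from a 1:1 binding model.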

[3] = biological target: GDP-bound NRAS wild-type protein (Homo sapiens, UniProt P01111); assay: Binding to NRAS by surface plasmon resonance (SPR), KD and KD ratio to KRAS
Procedure, shortened: as §1

[4] = ratio of KD with respect to HRAS wild-type protein to KD with respect to KRAS
[5] = 50% proliferation inhibitory concentration, four days
[6] = Single Cycle Kinetics, 1:1 binding model
[7] = ratio of KD with respect to GDP-bound NRAS wild-type protein to KD with respect to KRAS
[8] = ratio of KD for HRAS wild-type protein to KD for KRAS
[9] = ratio of KD for GDP-bound NRAS wild-type protein to KD for KRAS

Sequence of HRAS wild-type protein (P01112 whole entry): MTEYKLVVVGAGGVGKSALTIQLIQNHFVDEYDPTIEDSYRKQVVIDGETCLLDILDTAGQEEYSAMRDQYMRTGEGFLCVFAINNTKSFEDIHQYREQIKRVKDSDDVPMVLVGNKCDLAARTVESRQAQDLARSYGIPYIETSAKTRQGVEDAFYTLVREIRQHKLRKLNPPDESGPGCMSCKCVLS
Sequence of GDP-bound KRAS wild-type protein (P01116 1-188 isoform P01116-2): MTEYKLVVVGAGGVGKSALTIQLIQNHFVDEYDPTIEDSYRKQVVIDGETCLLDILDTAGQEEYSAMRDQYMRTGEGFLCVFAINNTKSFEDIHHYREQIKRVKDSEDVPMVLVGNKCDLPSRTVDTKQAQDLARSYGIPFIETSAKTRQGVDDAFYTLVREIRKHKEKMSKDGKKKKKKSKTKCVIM
Sequence of GDP-bound NRAS wild-type protein (P01111 whole entry): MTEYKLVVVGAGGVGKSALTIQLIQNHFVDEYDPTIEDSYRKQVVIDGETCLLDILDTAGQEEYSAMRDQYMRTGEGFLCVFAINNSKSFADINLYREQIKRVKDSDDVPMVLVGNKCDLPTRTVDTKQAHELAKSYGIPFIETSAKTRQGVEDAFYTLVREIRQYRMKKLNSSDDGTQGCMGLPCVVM

Row | SMILES | HRAS /KRAS (HRAS wild-type protein; [4]) | IC50 [1, 5] [nM] | Kd [2, 6] [nM] | NRAS /KRAS [3, 7] | HRAS /KRAS (HRAS wild-type protein; [8]) | IC50 ([1]; NCI-H441 cells, 4 days) [nM] | Kd ([2]; Single Cycle Kinetics) [nM] | NRAS /KRAS [3, 9] | Kd ([2]; 1:1 binding model) [nM]
1 | CC[C@H](C)[C@@H]1NC(=O)[C@H](CC)N(C)C(=O)C[C@@H](C(=O)N(C)C)N(C)C(=O)[C@H](C2CCCC2)N(C)C(=O)C2(CCC2)NC(=O)[C@@H]2C[C@@H](C(F)(F)F)CN2C(=O)[C@H](CCc2cc(F)c(C(F)(F)F)c(F)c2)NC(=O)CN(C)C(=O)[C@H](CC2CCCCC2)N2CC/C=C\C[C@@H](C2=O)N(C)C(=O)CN(C)C1=O [PP1465] | A (a compound having 10 or more and less than 20 is denoted as A) | 34.1 | 0.36 | A (a compound having 10 or more and less than 20 is denoted as A) |  |  |  |  | 
2 | CCO[C@@H]1C[C@H]2C(=O)NC3(CC(C)(C)C3)C(=O)N(C)[C@@H](C3CCCC3)C(=O)N(C)[C@H](C(=O)N(C)CC)CC(=O)N(C)[C@@H]([C@H](C)OC)C(=O)N[C@@H]([C@@H](C)CC)C(=O)N(C)CC(=O)N(C)[C@H]3C/C=C\CCN(C3=O)[C@@H](Cc3ccc(C)cc3)C(=O)N(C)CC(=O)N[C@@H](CCc3cc(F)c(C(F)(F)F)c(F)c3)C(=O)N2C1 [PP3226] |  |  |  |  | B (a compound having 3 or more and less than 10 is denoted as B) | 12.4 | 0.3 | A (a compound having 10 or more and less than 20 is denoted as A) | 
3 | CCO[C@@H]1C[C@H]2C(=O)NC3(CCC3)C(=O)N(C)[C@@H](C3CCCC3)C(=O)N(C)[C@H](C(=O)N(C)C)CC(=O)N(C)[C@@H](CC(C)C)C(=O)N[C@@H]([C@@H](C)CC)C(=O)N(C)CC(=O)N(C)[C@H]3C/C=C\CCN(C3=O)[C@@H](Cc3ccc(C(F)(F)F)cc3)C(=O)N(C)CC(=O)N[C@@H](CCc3cc(F)c(Cl)c(F)c3)C(=O)N2C1 [PP1263] | A (a compound having 10 or more and less than 20 is denoted as A) | 18.9 | 0.23 | A (a compound having 10 or more and less than 20 is denoted as A) |  |  |  |  | 
4 | CCC[C@H]1C(=O)N[C@@H]([C@@H](C)CC)C(=O)N(C)CC(=O)N(C)[C@H]2C/C=C\CCN(C2=O)[C@@H](Cc2ccc(C(F)(F)F)cc2)C(=O)N(C)CC(=O)N[C@@H](CCc2ccc(C(F)(F)F)c(OC)c2)C(=O)N2C[C@H](OCC)C[C@H]2C(=O)NC2(CC(C)(C)C2)C(=O)N(C)[C@@H](CC2CCC2)C(=O)N(C)[C@H](C(=O)N(C)C)CC(=O)N1C [PP2764] |  |  |  |  | A (a compound having 10 or more and less than 20 is denoted as A) | 55.8 |  | A (a compound having 10 or more and less than 20 is denoted as A) | 0.85
5 | CCC[C@H]1C(=O)N[C@@H]([C@@H](C)CC)C(=O)N(C)CC(=O)N(C)[C@H]2C/C=C\CCN(C2=O)[C@@H](Cc2ccc(C(F)(F)F)cc2)C(=O)N(C)CC(=O)N[C@@H](CCc2ccc(C(F)(F)F)c(OC)c2)C(=O)N2C[C@H](OCC)C[C@H]2C(=O)N(C)C2(CCC2)C(=O)N(C)[C@@H](C(CC)CC)C(=O)N(C)[C@H](C(=O)N(C)C)CC(=O)N1C [PP2382] |  |  |  |  | A (a compound having 10 or more and less than 20 is denoted as A) | 4.6 |  | A (a compound having 10 or more and less than 20 is denoted as A) | 0.12
6 | CCO[C@@H]1C[C@H]2C(=O)NC3(CCC3)C(=O)N(C)[C@@H](C3CCCC3)C(=O)N(C)[C@H](C(=O)N3CCOCC3)CC(=O)N(C)[C@@H](CC)C(=O)N[C@@H]([C@@H](C)CC)C(=O)N(C)CC(=O)N(C)[C@H]3CC[C@@H](C)CN(C3=O)[C@@H](Cc3ccc(C(F)(F)F)cc3)C(=O)N(C)CC(=O)N[C@@H](CCc3cc(F)c(C(F)(F)F)c(F)c3)C(=O)N2C1 [PP1372] | B (a compound having 3 or more and less than 10 is denoted as B) | 5 | 0.078 | B (a compound having 3 or more and less than 10 is denoted as B) |  |  |  |  | 
7 | CCC[C@H]1C(=O)N[C@@H]([C@@H](C)CC)C(=O)N(C)CC(=O)N(C)[C@H]2C/C=C\CCN(C2=O)[C@@H](Cc2ccc(C(F)(F)F)cc2)C(=O)N(C)CC(=O)N[C@@H](CCc2ccc(C(F)(F)F)c(OC)c2)C(=O)N2CC3(CC3)C[C@H]2C(=O)N(C)C2(CCC2)C(=O)N(C)[C@@H](C(CC)CC)C(=O)N(C)[C@H](C(=O)N(C)C)CC(=O)N1C [PP3361] |  |  |  |  | A (a compound having 10 or more and less than 20 is denoted as A) | 4.7 | 1.5 | A (a compound having 10 or more and less than 20 is denoted as A) | 
